# Experimental data taken from patent publication US20210017295A1, “BISPECIFIC BINDING AGENTS AND USES THEREOF” (MEMORIAL SLOAN KETTERING CANCER CENTER, priority 2018, published 2021).
# “And” between values parts separate entries of the source, which are not always exact repeats. Identical values can stand only once. Like-named read-outs stand apart in the source and are kept apart here.
# Tested on: s.c. HER2(+) BT-474 tumors
# Type: in vivo, mouse
# Conditions: 24 h p.i.
# [1] = PRIT + CA 62.5 μg, 55.5 MBq (~300 pmol), mean ± SEM
# [2] = PRIT + CA 62.5 μg, ~5.6 MBq (~30 pmol), mean ± SEM
# [3] = PRIT, CA 0% (saline), mean ± SD
# [4] = PRIT, CA 7.5% w/w 18.75 μg, mean ± SD
# [5] = PRIT, CA 14% w/w 37.5 μg, mean ± SD
# [6] = PRIT, CA 28% w/w 70 μg, mean ± SD
compound,measurement,setting,value
Nc1ccc(CC2CN(CC(=O)[O-])CCN(CC(=O)[O-])CCN(CC(=O)[O-])CCN2CC(=O)[O-])cc1.[177Lu+3] (centres unmarked) [^177Lu-DOTA-Bn],^177Lu activity in Blood,[1],0.29±0.05 % IA/g
same,^177Lu activity in Bone,[1],0.04 ± 0.01 % IA/g
same,^177Lu activity in Heart,[1],0.11 ± 0.02 % IA/g
same,^177Lu activity in Kidneys,[1],0.56±0.08 % IA/g
same,^177Lu activity in Large Int.,[1],0.20 ± 0.11 % IA/g
same,^177Lu activity in Liver,[1],0.33 ± 0.04 % IA/g
same,^177Lu activity in Lungs,[1],0.20 ± 0.02 % IA/g
same,^177Lu activity in Muscle,[1],0.04 ± 0.01 % IA/g
same,^177Lu activity in Small Int.,[1],0.05 ± 0.01 % IA/g
same,^177Lu activity in Spleen,[1],0.22 ± 0.07 % IA/g
same,^177Lu activity in Stomach,[1],0.04 ± 0.01 % IA/g
same,^177Lu activity in Tumor,[1],5.53±0.27 % IA/g
same,^177Lu activity in Blood,[2],0.28±0.09 % IA/g
same,^177Lu activity in Bone,[2],0.04 ± 0.01 % IA/g
same,^177Lu activity in Heart,[2],0.07 ± 0.02 % IA/g
same,^177Lu activity in Kidneys,[2],0.73±0.05 % IA/g
same,^177Lu activity in Large Int.,[2],0.18 ± 0.01 % IA/g
same,^177Lu activity in Liver,[2],0.27 ± 0.07 % IA/g
same,^177Lu activity in Lungs,[2],0.20 ± 0.05 % IA/g
same,^177Lu activity in Muscle,[2],0.06 ± 0.01 % IA/g
same,^177Lu activity in Small Int.,[2],0.05 ± 0.01 % IA/g
same,^177Lu activity in Spleen,[2],0.60 ± 0.21 % IA/g
same,^177Lu activity in Stomach,[2],0.06 ± 0.01 % IA/g
same,^177Lu activity in Tumor,[2],7.58±0.78 % IA/g
same,^177Lu activity in Blood,"PRIT + no CA, mean ± SEM",4.95 ± 0.58 % IA/g
same,^177Lu activity in Bone,"PRIT + no CA, mean ± SEM",0.39 ± 0.08 % IA/g
same,^177Lu activity in Heart,"PRIT + no CA, mean ± SEM",1.14 ± 0.14 % IA/g
same,^177Lu activity in Kidneys,"PRIT + no CA, mean ± SEM",2.31 ± 0.26 % IA/g
same,^177Lu activity in Large Int.,"PRIT + no CA, mean ± SEM",0.58 ± 0.06 % IA/g
same,^177Lu activity in Liver,"PRIT + no CA, mean ± SEM",1.85 ± 0.15 % IA/g
same,^177Lu activity in Lungs,"PRIT + no CA, mean ± SEM",2.11 ± 0.23 % IA/g
same,^177Lu activity in Muscle,"PRIT + no CA, mean ± SEM",0.38 ± 0.04 % IA/g
same,^177Lu activity in Small Int.,"PRIT + no CA, mean ± SEM",0.58 ± 0.06 % IA/g
same,^177Lu activity in Spleen,"PRIT + no CA, mean ± SEM",1.00 ± 0.11 % IA/g
same,^177Lu activity in Stomach,"PRIT + no CA, mean ± SEM",0.34 ± 0.04 % IA/g
same,^177Lu activity in Tumor,"PRIT + no CA, mean ± SEM",19.94±1.7 % IA/g and 19.94 ± 1.77 % IA/g
same,"Tumor-to-tissue ratio, Blood",[3],4.0±1.2
same,"Tumor-to-tissue ratio, Bone",[3],50.8 ± 22.7
same,"Tumor-to-tissue ratio, Heart",[3],17.5 ± 5.4
same,"Tumor-to-tissue ratio, Kidneys",[3],8.6 ± 2.5
same,"Tumor-to-tissue ratio, Large Int.",[3],34.4 ± 9.3
same,"Tumor-to-tissue ratio, Liver",[3],10.8 ± 2.6
same,"Tumor-to-tissue ratio, Lungs",[3],9.5 ± 2.6
same,"Tumor-to-tissue ratio, Muscle",[3],52.1 ± 15.2
same,"Tumor-to-tissue ratio, Small Int.",[3],34.5 ± 9.3
same,"Tumor-to-tissue ratio, Spleen",[3],19.9 ± 5.5
same,"Tumor-to-tissue ratio, Stomach",[3],59.1 ± 18.8
same,^177Lu activity in Blood,[3],4.95±1.17 % IA/g
same,^177Lu activity in Bone,[3],0.39 ± 0.16 % IA/g
same,^177Lu activity in Heart,[3],1.14 ± 0.29 % IA/g
same,^177Lu activity in Kidneys,[3],2.31 ± 0.52 % IA/g
same,^177Lu activity in Large Int.,[3],0.58 ± 0.12 % IA/g
same,^177Lu activity in Liver,[3],1.85 ± 0.30 % IA/g
same,^177Lu activity in Lungs,[3],2.11 ± 0.45 % IA/g
same,^177Lu activity in Muscle,[3],0.38 ± 0.09 % IA/g
same,^177Lu activity in Small Int.,[3],0.58 ± 0.12 % IA/g
same,^177Lu activity in Spleen,[3],1.00 ± 0.21 % IA/g
same,^177Lu activity in Stomach,[3],0.34 ± 0.09 % IA/g
same,^177Lu activity in Tumor,[3],19.94±3.54 % IA/g
same,"Tumor-to-tissue ratio, Blood",[4],7.1 ± 4.1
same,"Tumor-to-tissue ratio, Bone",[4],80.6 ± 61.9
same,"Tumor-to-tissue ratio, Heart",[4],16.0 ± 9.6
same,"Tumor-to-tissue ratio, Kidneys",[4],9.7 ± 6.0
same,"Tumor-to-tissue ratio, Large Int.",[4],29.9 ± 10.7
same,"Tumor-to-tissue ratio, Liver",[4],15.0 ± 7.8
same,"Tumor-to-tissue ratio, Lungs",[4],15.8 ± 7.9
same,"Tumor-to-tissue ratio, Muscle",[4],67.5 ± 20.1
same,"Tumor-to-tissue ratio, Small Int.",[4],33.7 ± 19.2
same,"Tumor-to-tissue ratio, Spleen",[4],12.6 ± 3.3
same,"Tumor-to-tissue ratio, Stomach",[4],59.2 ± 17.0
same,^177Lu activity in Blood,[4],1.03 ± 0.58 % IA/g
same,^177Lu activity in Bone,[4],0.09 ± 0.07 % IA/g
same,^177Lu activity in Heart,[4],0.45 ± 0.27 % IA/g
same,^177Lu activity in Kidneys,[4],0.75 ± 0.46 % IA/g
same,^177Lu activity in Large Int.,[4],0.24 ± 0.08 % IA/g
same,^177Lu activity in Liver,[4],0.49 ± 0.25 % IA/g
same,^177Lu activity in Lungs,[4],0.46 ± 0.23 % IA/g
same,^177Lu activity in Muscle,[4],0.11 ± 0.03 % IA/g
same,^177Lu activity in Small Int.,[4],0.22 ± 0.12 % IA/g
same,^177Lu activity in Spleen,[4],0.58 ± 0.14 % IA/g
same,^177Lu activity in Stomach,[4],0.12 ± 0.03 % IA/g
same,^177Lu activity in Tumor,[4],7.26 ± 0.55 % IA/g
same,"Tumor-to-tissue ratio, Blood",[5],13.1 ± 5.1
same,"Tumor-to-tissue ratio, Bone",[5],159.0 ± 66.7
same,"Tumor-to-tissue ratio, Heart",[5],45.1 ± 18.9
same,"Tumor-to-tissue ratio, Kidneys",[5],8.7 ± 3.2
same,"Tumor-to-tissue ratio, Large Int.",[5],18.9 ± 10.9
same,"Tumor-to-tissue ratio, Liver",[5],14.6 ± 5.3
same,"Tumor-to-tissue ratio, Lungs",[5],19.6 ± 7.4
same,"Tumor-to-tissue ratio, Muscle",[5],84.5 ± 37.6
same,"Tumor-to-tissue ratio, Small Int.",[5],39.8 ± 21.2
same,"Tumor-to-tissue ratio, Spleen",[5],9.8 ± 4.4
same,"Tumor-to-tissue ratio, Stomach",[5],50.1 ± 20.7
same,^177Lu activity in Blood,[5],0.52 ± 0.08 % IA/g
same,^177Lu activity in Bone,[5],0.04 ± 0.01 % IA/g
same,^177Lu activity in Heart,[5],0.15 ± 0.03 % IA/g
same,^177Lu activity in Kidneys,[5],0.78 ± 0.09 % IA/g
same,^177Lu activity in Large Int.,[5],0.36 ± 0.16 % IA/g
same,^177Lu activity in Liver,[5],0.46 ± 0.04 % IA/g
same,^177Lu activity in Lungs,[5],0.35 ± 0.05 % IA/g
same,^177Lu activity in Muscle,[5],0.08 ± 0.02 % IA/g
same,^177Lu activity in Small Int.,[5],0.17 ± 0.07 % IA/g
same,^177Lu activity in Spleen,[5],0.69 ± 0.20 % IA/g
same,^177Lu activity in Stomach,[5],0.14 ± 0.03 % IA/g
same,^177Lu activity in Tumor,[5],6.76 ± 2.39 % IA/g
same,"Tumor-to-tissue ratio, Blood",[6],25.6 ± 13.9
same,"Tumor-to-tissue ratio, Bone",[6],63.5 ± 97.0
same,"Tumor-to-tissue ratio, Heart",[6],63.5 ± 35.2
same,"Tumor-to-tissue ratio, Kidneys",[6],9.4 ± 4.3
same,"Tumor-to-tissue ratio, Large Int.",[6],37.7 ± 18.5
same,"Tumor-to-tissue ratio, Liver",[6],21.2 ± 9.7
same,"Tumor-to-tissue ratio, Lungs",[6],28.5 ± 14.3
same,"Tumor-to-tissue ratio, Muscle",[6],84.6 ± 45.2
same,"Tumor-to-tissue ratio, Small Int.",[6],99.7 ± 47.9
same,"Tumor-to-tissue ratio, Spleen",[6],9.6 ± 4.9
same,"Tumor-to-tissue ratio, Stomach",[6],133.0 ± 76.7
same,^177Lu activity in Blood,[6],0.27 ± 0.08 % IA/g
same,^177Lu activity in Bone,[6],0.11 ± 0.16 % IA/g
same,^177Lu activity in Heart,[6],0.11 ± 0.04 % IA/g
